The values that follow come from patent EP0429333B1, “Process for producing oxazopyrroloquinolines, novel oxazopyrroloquinolines, and use of oxazopyrroloquinolines” (priority 1989, dated 1991).

Data set [1] addresses aldose reductase of kidney (Canis lupus familiaris, UniProt A0A8I3P2L6). Description: Inhibitory effect on aldose reductase of kidney. Type of data set: biochemical, dog. To be noted: read-out: Degree of inhibition for aldose reductase (%). On the procedure:
Medulla of kidney of dog was homogenized with 10mM phosphoric acid buffer (pH 7.0) containing 2mM dithiothreitol in an amount of four times the volume of kidney medulla and subjected to centrifugation. The supernatant liquid was purified by affinity chromatography, gel filtration and chromatofocusing to obtain electrophoretically homogeneous aldose reductase. 0.05 ml of 3mM NADPH, 0.1 ml of DL-glyceraldehyde and 0.04 ml of distilled water were added to 0.8 ml of 0.1M phosphoric acid buffer (pH 6.2) and left to stand at 25°C for 3 minutes. Then, 0.01 ml of the aldose reductase solution was added thereto to start reaction and decreasing of absorbance of 340 nm was measured at 25°C with time. Amount of enzyme which consumes 1 µmole of NADPH for 1 minute was taken as 1 unit.

The nature of data set [2]: Solubility of the isolated compound, described in words. Type of data set: physicochemical. The note with it: for solubility in water / solubility under neutral and alkaline conditions: water.
For a further data set, the system named is kidney. Description: Toxicity to kidney determined by blood examination. Type of data set: in vivo, mice. On the procedure:
After one day from administration, the mice were fasted (only water was given) and after lapse of 18 hours, blood was collected and serum was obtained therefrom. Glucose, urea nitrogen and creatinine in the serum were examined using FUJI Dry Chemslide (manufactured by Fuji Photo Film Co., Ltd.). […]
Thereafter, the mice were fasted (with giving only water) and after lapse of 18 hours, blood was collected and serum was obtained therefrom. Contents of glucose, urea nitrogen and creatinine in serum were obtained using FUJI Dry Chemslide. The results were shown by average value for eight mice.

The test system of a further data set is male SPF-ICR mice. In words: in vivo. The protocol: (§1) (1) Acute toxicity test: • (i) To male SPF-ICR mice of 5 weeks old (supplied by Charles River Co.) were intraperitoneally administered PQQ·2Na and OPQs in the dosages of 20, 40, 80, 160 and 200 mg/kg body weight of mouse, respectively and they were bred at 25°C for 14 days. OPQ, 1-methylpropyl OPQ, 2-methylthioethyl OPQ, and benzyl OPQ were used as the OPQs. One group consisted of 8 mice. […] One group consisted of 8 mice. […] They were bred at 25°C for 14 days. One group consisted of eight mice. […] (2) Toxicity to kidney (i) Toxicity to kidney determined by urine examination: In the same manner as in the acute toxicity test, PQQ·2Na and OPQs were respectively intraperitoneally administered to mice and these mice were bred. Urine was collected every day and concentration of glucose in urine was obtained using Uristex II (manufactured by Miles·Sankyo Co.). […]

Data set [3] has as its system carbon tetrachloride (CCl4)-induced liver diseases. In words: Pharmacological activity on carbon tetrachloride-induced liver diseases. Type of data set: in vivo, SD rats. To be noted: 5mg/kg rat twice, CCl4 1 ml/kg rat; for Total bilirubin: Table 27: CCl4 only 1.2, no administration 0.5; for GPT: Table 27: CCl4 only 818, no administration 16; for GOT: Table 27: CCl4 only 3308, no administration 144.

The target in data set [4] is T1, aldose reductase of rabbit lens (Oryctolagus cuniculus, UniProt P15122).
T1 construct: to obtain electrophoretically homogeneous aldose reductase; from tissue; host or cells: rabbit lens
In words: Inhibitory effect on aldose reductase of lens. Type of data set: biochemical. To be noted: read-out: Degree of inhibition for aldose reductase (%). On the procedure:
0.05 ml of 3mM NADPH, 0.1 ml of DL-glyceraldehyde and 0.04 ml of distilled water were added to 0.8 ml of 0.1M phosphoric acid buffer (pH 6.2) and left to stand at 25°C for 3 minutes. Then, 0.01 ml of the aldose reductase solution was added thereto to start reaction and decreasing of absorbance of 340 nm was measured at 25°C with time. Amount of enzyme which consumes 1 µmole of NADPH for 1 minute was taken as 1 unit.
Enzyme activity was measured under the same conditions as in the above measurement of aldose reductase activity except that 0.04 ml of aqueous solution of inhibitory substance in various concentrations was added in place of 0.04 ml of distilled water and degree of inhibition was calculated from comparison of the enzyme activity with the enzyme activity obtained in the absence of inhibitor. (1) OPQ, (2) methyl OPQ, (3) 1-methylpropyl OPQ, (4) 2-methylpropyl OPQ, (5) 2-carbamoylethyl OPQ, (6) hydroxymethyl OPQ, (7) 2-methylthioethyl OPQ, (8) 2-carboxyethyl OPQ, (9) 4-hydroxybenzyl OPQ, (10) 1-methylethyl OPQ, and (11) benzyl OPQ were used as inhibition substances and (12) PQQ was used as control.
Lens of rabbit was homogenized with 10mM phosphoric acid buffer (pH 7.0) containing 2mM dithiothreitol in an amount of two times the volume of the lens and subjected to centrifugation. The supernatant liquid was purified by affinity chromatography, gel filtration and chromatofocusing to obtain electrophoretically homogeneous aldose reductase. Using (1) OPQ, (2) 1-methylpropyl OPQ, (3) 2-methylpropyl OPQ, (4) hydroxymethyl OPQ, and (5) 1-methylethyl OPQ as inhibition substances, degree of inhibition of these substances for aldose reductase of rabbit lens was examined in the same manner in Example 32.

In a further data set the test system is cataract. Description: Anti-cataract effect, intraperitoneal administration, 50 % galactose fed rats. Type of data set: in vivo, Sprague-Davley rats. To be noted: for Body weight (average): 20mg/kg rat intraperitoneally once a day. The protocol:
Eightyfour male Sprague-Davley rats (supplied from Japan Charles Liver Co.) of four weeks old and having a body weight of 70 - 80 g were used and the following experiments were conducted. One group consisted of six rats.
The groups included normal group, 50 % galactose administration group, PQQ administration group, and OPQ administration group. Commercially available feeding stuff (manufactured by Japan Clea Co.) was given to the rats of normal group, and rats of 50 % galactose administration group, PQQ administration group and OPQ administration group were allowed to freely take powdery feeding stuff comprising a mixture of the above-mentioned commercially available powder feeding stuff and D-galactose for food additive in equal weight.
To the rats of PQQ and OPQ administration groups were intraperitoneally administered PQQ·2Na or OPQ in a dosage of 2 mg, 5 mg, 10 mg and 20 mg per 1 kg of rat once a day simultaneously with starting of galactose feeding and until termination of feeding.
On the 6th day and the 9th day from starting of experiment, eyeball was observed by stereoscopic microscope and judgment on cataract was made according to the following criteria. A0: No muddiness (normal) A1: Light white muddiness in the surface portion. A2: A slight heavy white muddiness in the surface portion. A3: Heavy white muddiness in the surface portion. A4: Heavy white muddiness in the surface portion and a slight white muddiness in the core portion. A5: Heavy white muddiness in the surface portion and the core portion.

The next data set is described as follows: in vivo. To be noted: mouse, in vivo, ip. The protocol: as §1
[5] abbreviates: serum, 40 mg/kg mouse intraperitoneally, Table 2, no administration 0.8.
[6] abbreviates: serum, 40 mg/kg mouse intraperitoneally, Table 2, no administration 24.
[7] abbreviates: serum, 40 mg/kg mouse intraperitoneally, Table 2, no administration 78.
Setting [8] is: serum, 80 mg/kg mouse intraperitoneally, Table 2, no administration 0.8.
The mark [9] stands for this setting: serum, 80 mg/kg mouse intraperitoneally, Table 2, no administration 24.
[10] abbreviates: serum, 80 mg/kg mouse intraperitoneally, Table 2, no administration 78.
[11] abbreviates: serum, 160 mg/kg mouse intraperitoneally, Table 2, no administration 0.8.
Setting [12] is: serum, 160 mg/kg mouse intraperitoneally, Table 2, no administration 24.
Setting [13] is: serum, 160 mg/kg mouse intraperitoneally, Table 2, no administration 78.
The mark [14] stands for this setting: serum, 200 mg/kg mouse intraperitoneally, Table 2, no administration 0.8.
[15] abbreviates: serum, 200 mg/kg mouse intraperitoneally, Table 2, no administration 24.
Where [16] appears, read: serum, 200 mg/kg mouse intraperitoneally, Table 2, no administration 78.

For the molecule `CCC(C)c1nc2c3nc(C(=O)O)cc(C(=O)O)c3c3[nH]c(C(=O)O)cc3c2o1` (stereo not drawn) [1-Methylpropyl OPQ, 5-(1-Methylpropyl)-2,8,10-tricarboxy-1H-oxazo[5,4-h]-pyrrolo[2,3-f]quinoline], the figures for the inhibition at 0.1 µM in data set [1] (concentration 1x10^-7 M) and in data set [4] (concentration 1x10^-7 M) were 32.6% and 24%, respectively. For the same molecule, the figures for the inhibition at 0.2 µM in data set [1] (concentration 2x10^-7 M) and in data set [4] (concentration 2x10^-7 M) were 45.9% and 36.4%, respectively. For the same molecule, the inhibition (usually the share of the control response that was lost under treatment) at 0.5 µM in data set [1] (concentration 5x10^-7 M) is 61.7%; in data set [4] (concentration 5x10^-7 M) it was 50.8%. For the same molecule, in data set [2], the “solubility in acetone and diethyl ether” value was “did not dissolve”. Further, the “solubility in lower alcohols” value in data set [2] was “dissolved”. Moreover, the solubility in water entry in data set [2] was “easily soluble”. The “solubility under neutral and alkaline conditions” value in data set [2] is “very easily soluble”. Also, the Creatinine with kidney (setting [5]), with kidney (setting [8]), with kidney (setting [11]) and with kidney (setting [14]) was 0.8 mg/dL each time. Also, the Urea nitrogen worked out at 26 mg/dL with kidney (setting [6]), 22 mg/dL in the data set on kidney (setting [9]), 27 mg/dL with kidney (setting [12]) and 27 mg/dL with kidney (setting [15]). In addition, the Glucose was 87 mg/dL in the data set with kidney (setting [7]), 104 mg/dL in the data set on kidney (setting [10]), 87 mg/dL with kidney (setting [13]) and 66 mg/dL in the data set on kidney (setting [16]). Further, the death of mice entry in the data set on male SPF-ICR mice (mouse, in vivo) is on record as “no mice died”. Further, the Total bilirubin in data set [3] was 0.7 mg/dL. In data set [3], this molecule returned a GPT of 182 U/l. In data set [3], this molecule returned a GOT of 887 U/l. For the same molecule, the inhibition at 1 µM in data set [4] (concentration 1x10^-6 M) is 64.7%.

`O=C(O)c1cc(C(=O)O)c2c(n1)c1nc(Cc3ccccc3)oc1c1cc(C(=O)O)[nH]c12` [Benzyl OPQ, 5-Benzyl-2,8,10-tricarboxy-1H-oxazo[5,4-h]-pyrrolo-[2,3-f]-quinoline]: the inhibition at 1 µM in data set [1] (concentration 1x10^-6 M) worked out at 35.7%. Moreover, the inhibition at 2 µM in data set [1] (concentration 2x10^-6 M) was found to be 46.4%. Moreover, in data set [1] (concentration 5x10^-6 M), the inhibition at 5 µM came to 63.3%. Besides, the “solubility in acetone and diethyl ether” value in data set [2] is reported as “did not dissolve”. In data set [2], the “solubility in lower alcohols” value is recorded as “dissolved”. Further, in data set [2], the solubility in water entry is “easily soluble”. In addition, the “solubility under neutral and alkaline conditions” value in data set [2] is reported as “especially soluble”. Moreover, the Creatinine in the data set on kidney (setting [5]), in the data set with kidney (setting [8]), with kidney (setting [11]) and with kidney (setting [14]) was 0.7 mg/dL in each case. Also, the Urea nitrogen was 23 mg/dL in the data set with kidney (setting [6]), 23 mg/dL with kidney (setting [9]), 26 mg/dL in the data set with kidney (setting [12]) and 25 mg/dL with kidney (setting [15]). In addition, the Glucose in the data set on kidney (setting [7]) was determined as 90 mg/dL; in the data set on kidney (setting [10]), 87 mg/dL; with kidney (setting [13]) it was 87 mg/dL; in the data set on kidney (setting [16]) it was 84 mg/dL. In the data set with male SPF-ICR mice (mouse, in vivo), the death of mice result is reported as “no mice died”. In addition, the Total bilirubin in data set [3] amounted to 0.7 mg/dL. In addition, the GPT in data set [3] is 233 U/l. This molecule had a GOT in data set [3] of 993 U/l.

Regarding `O=C(O)c1cc(C(=O)O)c2c(n1)C(=O)C(=O)c1cc(C(=O)O)[nH]c1-2` [PQQ·2Na, reference compound], in the data set on cataract (10 mg and 20 mg/kg rat intraperitoneally once a day), the body weight result was “reduction in body weight was recognized”. In addition, the “Body weight (average)” value in the data set on cataract (6th day, normal group about 115 g) is recorded as “* Body weight reduced (average 66 g). Body weight of rats of normal group was about 115 g on the average”; in the data set with cataract (9th day, normal group about 141 g) it was “** Body weight did not increase (average 77 g). Body weight of rats of normal group was about 141 g on the average”. Further, the Creatinine stood at 0.8 mg/dL in the data set on kidney (mouse, in vivo, ip, 20 mg/kg); 2.3 mg/dL with kidney (mouse, in vivo, ip, 40 mg/kg); 3.4 mg/dL in the data set with kidney (mouse, in vivo, ip, 80 mg/kg); 4.2 mg/dL in the data set on kidney (mouse, in vivo, ip, 160 mg/kg). Also, the Glucose was 70 mg/dL with kidney (mouse, in vivo, ip, 20 mg/kg); 60 mg/dL in the data set on kidney (mouse, in vivo, ip, 40 mg/kg); 57 mg/dL in the data set with kidney (mouse, in vivo, ip, 80 mg/kg); 35 mg/dL in the data set with kidney (mouse, in vivo, ip, 160 mg/kg). Besides, the Urea nitrogen turned out to be 25 mg/dL with kidney (mouse, in vivo, ip, 20 mg/kg); 110 mg/dL with kidney (mouse, in vivo, ip, 40 mg/kg); 130 mg/dL with kidney (mouse, in vivo, ip, 80 mg/kg); 139 mg/dL in the data set on kidney (mouse, in vivo, ip, 160 mg/kg). Besides, the LD50 (commonly the dose expected to kill half of the subjects tested) at 336 h in “in vivo” is roughly 70 mg/kg. The death of mice entry in the data set with male SPF-ICR mice (80 mg intraperitoneally, 8 mice, 14 days) was “five mice died”; with male SPF-ICR mice (160 mg and 200 mg intraperitoneally, 8 mice, 14 days) it was “all of eight mice died”; with male SPF-ICR mice (mouse, in vivo) it was “the mice survived”.
